Experimental data published in article PMC3206494, “Discovery of potent, novel, non-toxic anti-malarial compounds via quantum modelling, virtual screening and in vitro experimental validation” (Malaria Journal, 2011).
Where two headings read alike, the source gives them in different places.

Key:
P. falciparum = assay: In vitro anti-malarial activity, [3H]-hypoxanthine incorporation assay; format: cell-based; conditions: Plasmodium falciparum
Experimental: The in vitro anti-malarial activity was measured using the [3H]-hypoxanthine incorporation assay with various strains of P. falciparum (Roche). Results were expressed as the concentration corresponding to 50% inhibition. The anti-malarial assays were performed at the Swiss Tropical Institute, Basel, Switzerland.

[1] = Solubility in DMSO (footnote to Table 2); format: physicochemical; parameters: key: *: Not fully soluble in DMSO; conditions: footnote mark on the anti-malarial activity value
Text: Table 2 Summary of anti-malarial activity and cytotoxicity | column: Average Anti-malarial Activity**(ng/ml)

mammalian cytotoxicity = assay: Toxicity assay, colorimetric MTT assay (mammalian cytotoxicity); format: cell-based; conditions: data from two independent assays
Experimental: Toxicity was determined by using the colorimetric 3-(4,5-dimethylthiazol-2-yl)-2,5-diphenyltetrazoliumbromide (MTT) assay. The toxicity assays were performed at the Swiss Tropical Institute, Basel, Switzerland.

[2] = P. falciparum, in vitro, data from two independent assays, read-out: Average Anti-malarial Activity (concentration corresponding to 50% inhibition)
[3] = P. falciparum, in vitro, read-out: IC50 (anti-malarial activity)

Row | IC50 (P. falciparum; [2]) [µg/mL] | IC50 (P. falciparum; [3]) [µM] | SMILES | Average Cytotoxicity (mammalian cytotoxicity) [ng/mL] | also measured
1 | 9.74 | 18.9 | Cc1cccc(C)c1OCCOCC(O)CN1CCN(Cc2ccc3c(c2)OCO3)CC1 (stereo not shown) [GR-M005] | – | –
2 | – | > 20 | CC(C)(C)c1cnnn1-c1ccc(C=Cc2ccc(C=Cc3ccc4ccccc4n3)cc2)cc1 [GR-M001] | – | Solubility in DMSO [1]: *
3 | 0.172 | 0.332 | CC1=C(CCC(C)N(C)Cc2ccc(OCCCN3CCCC3)cc2)C(C)(C)CCC1 (stereo not shown) [GR-M010] | 4860 | –
4 | – | – | CCN(CC)CCCC(C)Nc1ccnc2cc(Cl)ccc12 (stereo not shown) [chloroquine, reference compound] | – | IC50 (P. falciparum; read-out: Average Anti-malarial Activity (concentration corresponding to 50% inhibition)): 0.0042 µg/mL; IC50 (P. falciparum; read-out: IC50 (anti-malarial activity)): 0.013 µM
5 | 0.086 | 0.185 | CC(C)(C)CC(C)(C)Cc1ccc(OCCOCC[N+](C)(C)Cc2ccccc2)cc1 [GR-M011] | 3250 | –
6 | 4.78 | 10.3 | Cc1ccc(C)c(NCC(O)COc2ccc(OCC(O)CNc3cc(C)ccc3C)cc2)c1 (stereo not shown) [GR-M004] | – | –
7 | – | – | COc1cc([C@@H]2c3cc4c(cc3[C@H](O)[C@H]3COC(=O)[C@H]23)OCO4)cc(OC)c1OC [Podophyllotoxin, reference compound] | 9.5 | –
8 | 5.38 | 12.5 | CC(NC(=O)CN1CCCN(CC(=O)NC(C)(C)C)CC1)c1ccc2c(c1)CCCC2 (stereo not shown) [GR-M002] | – | –
9 | 1.63 | 3.52 | Cc1ccc2c(c1)N(CCCC(=O)NCCCN1CCC(Cc3ccccc3)CC1)C(=O)CO2 [GR-M006] | – | –
10 | – | > 20 | O=CN1CCN(CC(O)COc2ccc(OCC(O)CN3CCN(C=O)CC3)cc2)CC1 (stereo not shown) [GR-M003] | – | –
11 | 0.446 | 0.999 | Cc1ccc(Cn2cc(CCC(=O)NCCCN3CC(C)CC(C)C3)c3ccccc32)cc1 (stereo not shown) [GR-M007] | 10420 | –

Row | SMILES | IC50 (P. falciparum; [2]) [µg/mL] | IC50 (P. falciparum; [3]) [µM] | Average Cytotoxicity (mammalian cytotoxicity) [ng/mL] | also measured
12 | Cc1cccc[n+]1CCCCCCCCCC[n+]1ccccc1C [GR-M009] | 0.013 | 0.027 | – | –
